Tested on: Myo5 SH3 domain
Test: SPOT analysis of cellulose-bound peptides (WISE), Myo5 SH3 domain (Dataset S4)
Assay type: binding, Saccharomyces cerevisiae
Conditions: for The normalized value in BLU units: Myo5 SH3 domain
[1] = SPOT analysis of membrane-synthesized peptides probed with Myo5 SH3 domain, normalized value
[2] = SPOT analysis of cellulose-bound peptides probed with Myo5 SH3 domain, normalized value
[3] = SPOT analysis of cellulose-bound 14-mer yeast proteome peptides, normalized value, mean where the peptide was synthesized more than once
[4] = SPOT analysis of membrane-bound peptides, normalized value (see methods)

For PPNYKQQPNCPSSN, the “The normalized value in BLU units (SPOT analysis, Myo5 SH3)” value [1] was 147.5 BLU.
For AVLIRADPLNPKVV, the “The normalized value in BLU units (SPOT analysis, Myo5 SH3)” value [1] was 102.0 BLU.
For MDKFRIPPKSPNIE, the “The normalized value in BLU units (SPOT analysis, Myo5 SH3)” value [1] was 222.0 BLU.
With KESKFGTPEKPLSD the “The normalized value in BLU units (SPOT analysis, Myo5 SH3)” value [2] was 249.8 BLU.
In the case of VLKNLPTPGEPFNF, the “The normalized value in BLU units” value [3] is reported as 148.4 BLU.
For IDKSKLSPRFPELK, the “The normalized value in BLU units” value [4] was 233.0 BLU.
For ASFRKTKPPPPLDF, the “The normalized value in BLU units (SPOT analysis, Myo5 SH3)” value [1] was 169.0 BLU.
For VSQRKKRPISPHLT, the “The normalized value in BLU units” value [4] was 814.5 BLU.
With LTKIRRRPQQPLTD the “The normalized value in BLU units (SPOT analysis, Myo5 SH3)” value [1] was 393.3 BLU.
With LQYHKKNPYSPLFS the “The normalized value in BLU units” value [3] was 317.8 BLU.
With GETQWRIPYLPLDP the “The normalized value in BLU units (SPOT analysis, Myo5 SH3)” value [2] was 106.2 BLU.
SRYLKDHPNLPTPE was tested, and the “The normalized value in BLU units (SPOT analysis, Myo5 SH3)” value [1] was 69.2 BLU.
For IKMSRSPPRPPSLK, the “The normalized value in BLU units (SPOT analysis, Myo5 SH3)” value [1] was 17731.3 BLU.
For RLQKLDDPKSPYQC, the “The normalized value in BLU units” value [3] was 127.2 BLU.
For NESEKSSPWSPYKV, the “The normalized value in BLU units” value [4] was 221.5 BLU.
With CNYSKIFPGIPISL the “The normalized value in BLU units (SPOT analysis, Myo5 SH3)” value [1] was 49.2 BLU.
EEKVKRTPPLPPVP was tested, and the “The normalized value in BLU units (SPOT analysis, Myo5 SH3)” value [1] was 586.7 BLU.
IPVGYVTPKFPSLY was tested, and the “The normalized value in BLU units” value [3] was 21.6 BLU.
In the case of PEHLFNNPQNPMDF, the “The normalized value in BLU units” value [3] is reported as 157.1 BLU.
SLISKRNPCYPYGI was tested, and the “The normalized value in BLU units” value [3] was 483.2 BLU.
For MANILYYPQKPLGT, the “The normalized value in BLU units (SPOT analysis, Myo5 SH3)” value [2] was 152.5 BLU.
With TPINFVFPNLPLEH the “The normalized value in BLU units” value [3] was 81.8 BLU.
With ETSLRVLPIAPKIF the “The normalized value in BLU units” value [3] was 548.0 BLU.
For DARPFLQPVDPVKL, the “The normalized value in BLU units (SPOT analysis, Myo5 SH3)” value [2] was 179.1 BLU.
KLPDLKLPPSPVPS was tested, and the “The normalized value in BLU units” value [3] was 231.2 BLU.
With FASEKGAPFFPNKT the “The normalized value in BLU units (SPOT analysis, Myo5 SH3)” value [1] was 358.8 BLU.
For KPMLHNVPHDPSLP, the “The normalized value in BLU units” value [3] was 412.6 BLU.
In the case of KAVHLYFPILPHCG, the “The normalized value in BLU units” value [3] is reported as 125.3 BLU.
In the case of DSYSRSRPTRPLGY, the “The normalized value in BLU units” value [4] is reported as 261.3 BLU.
For RLPSKTDPLDPHIK, the “The normalized value in BLU units” value [4] was 129.4 BLU.
In the case of SENRLRTPLKPLVN, the “The normalized value in BLU units (SPOT analysis, Myo5 SH3)” value [2] is reported as 272.3 BLU.
For SAENLIQPTAPIRD, the “The normalized value in BLU units” value [3] was 56.4 BLU.
With ATVVKNCPGDPELF the “The normalized value in BLU units” value [4] was 76.2 BLU.
With KELPFTGPSIPFEN the “The normalized value in BLU units (SPOT analysis, Myo5 SH3)” value [2] was 338.9 BLU.
For EPATLPLPGTPTLA, the “The normalized value in BLU units (SPOT analysis, Myo5 SH3)” value [2] was 61.8 BLU.
MLFMKGSPSEPKCG was tested, and the “The normalized value in BLU units (SPOT analysis, Myo5 SH3)” value [1] was 250.7 BLU.
For ETGVRYGPEFPLCT, the “The normalized value in BLU units (SPOT analysis, Myo5 SH3)” value [1] was 96.2 BLU.
TKFTKPKPKQPVLP was tested, and the “The normalized value in BLU units (SPOT analysis, Myo5 SH3)” value [1] was 445.1 BLU.
For DTYARNNPDFPPQN, the “The normalized value in BLU units” value [3] was 138.5 BLU.
For HICDKMNPASPQYF, the “The normalized value in BLU units” value [4] was 159.1 BLU.
PSSHKRKPVIPWDA was tested, and the “The normalized value in BLU units” value [4] was 289.2 BLU.
For NELVKRFPGHPPLR, the “The normalized value in BLU units” value [4] was 300.5 BLU.
SWRSLTKPKIPLYK was tested, and the “The normalized value in BLU units” value [3] was 356.9 BLU.
YLTEFSRPIPPTPS was tested, and the “The normalized value in BLU units” value [3] was 168.8 BLU.
In the case of TASQLQNPPPPPST, the “The normalized value in BLU units” value [3] is reported as 168.2 BLU.
NSFRKILPQEPEIW was tested, and the “The normalized value in BLU units” value [4] was 235.4 BLU.
LLLPLLLPPLPSVK was tested, and the “The normalized value in BLU units (SPOT analysis, Myo5 SH3)” value [2] was 6465.7 BLU.
For LLISHLFPTNPEFS, the “The normalized value in BLU units (SPOT analysis, Myo5 SH3)” value [2] was 413.9 BLU.
With NTVEKLQPGLPVII the “The normalized value in BLU units” value [4] was 279.7 BLU.
In the case of KDFSKNAPYNPSEV, the “The normalized value in BLU units” value [4] is reported as 142.6 BLU.
In the case of ILVPHLDPIDPWEA, the “The normalized value in BLU units” value [3] is reported as 166.0 BLU.
KFTDMQVPKGPVCP was tested, and the “The normalized value in BLU units (SPOT analysis, Myo5 SH3)” value [2] was 197.0 BLU.
With TSNTKWTPITPSVI the “The normalized value in BLU units” value [4] was 141.7 BLU.
KEFFRLTPNQPVGL was tested, and the “The normalized value in BLU units” value [4] was 43.8 BLU.
In the case of GWPVYNYPMQPTTE, the “The normalized value in BLU units (SPOT analysis, Myo5 SH3)” value [2] is reported as 167.9 BLU.
VLKIKPLPYKPRGR was tested, and the “The normalized value in BLU units (SPOT analysis, Myo5 SH3)” value [1] was 646.7 BLU.
In the case of DLIHLDCPQQPNGY, the “The normalized value in BLU units” value [3] is reported as 219.5 BLU.
GKDHRLAPNGPGMH was tested, and the “The normalized value in BLU units (SPOT analysis, Myo5 SH3)” value [1] was 217.5 BLU.
With TPQSRFPPYSPLLP the “The normalized value in BLU units” value [4] was 442.7 BLU.
RLVNKLLPPHPFAD was tested, and the “The normalized value in BLU units (SPOT analysis, Myo5 SH3)” value [1] was 289.2 BLU.
In the case of FFPIMSLPVTPVKS, the “The normalized value in BLU units (SPOT analysis, Myo5 SH3)” value [2] is reported as 122.3 BLU.
For LNRKKVTPQLPKVT, the “The normalized value in BLU units” value [4] was 499.8 BLU.
For AELLLGQPMFPGES, the “The normalized value in BLU units (SPOT analysis, Myo5 SH3)” value [2] was 172.2 BLU.
In the case of RPVYRLKPNAPFQY, the “The normalized value in BLU units (SPOT analysis, Myo5 SH3)” value [1] is reported as 209.8 BLU.
In the case of HILEKYSPFDPCGR, the “The normalized value in BLU units” value [4] is reported as 166.2 BLU.
With PETRMDLPFSPEVN the “The normalized value in BLU units (SPOT analysis, Myo5 SH3)” value [2] was 130.3 BLU.
With LLAKLPLPRDPRVA the “The normalized value in BLU units” value [3] was 343.8 BLU.
In the case of EADGLVQPVVPDKV, the “The normalized value in BLU units” value [3] is reported as 75.1 BLU.
For TTTYKSRPDRPKPV, the “The normalized value in BLU units” value [4] was 309.3 BLU.
For YEVTFDGPNDPLHP, the “The normalized value in BLU units” value [3] was 110.9 BLU.
For CWHPKTIPKQPMEI, the “The normalized value in BLU units (SPOT analysis, Myo5 SH3)” value [1] was 342.9 BLU.
With RLVSKYRPNCPIIL the “The normalized value in BLU units” value [4] was 286.2 BLU.
